{"source": "patent US20100022553A1", "about": "“Therapeutic Combination Comprising an Aurora Kinase Inhibitor and Imatinib” (NERVIANO MEDICAL SCIENCES S.R.L., priority 2008, published 2010)", "key": {"[1]": {"test_system": "Human myeloid leukemia K-562 cell line", "conditions": "K562 s.c. in SCID mice, Imatinib 100 mg/kg per os, days 7-15; for Time to reach 1 g: Compound 1 15 mg/kg intraperitoneally twice a day; for T-C: delay of treated vs control tumors to reach 1 g, Compound 1 15 mg/kg i.p.", "procedure": "SCID female mice, from Harlan (Italy), were maintained in cages with paper filter cover, food and bedding sterilized and water acidified.\nFor in vivo experiments 10^7 K562 cells were implanted subcutaneously in SCID mice.\nTumor growth and body weight were measured every 3 days. Tumor growth was assessed by caliper. […] This delay (T-C value) was defined as the difference of time (in days) required for the treatment group (T) and the control group(C) tumors to reach a predetermined size (1 g).\nToxicity was evaluated on the basis of body weight reduction."}, "[2]": {"biological_target": "T315I mutation of Abl (Bcr-Abl) (Homo sapiens, UniProt P00519, T315I)", "conditions": "cited from earlier work"}}}
{"smiles": "CO[C@@H](C(=O)N1Cc2[nH]nc(NC(=O)c3ccc(N4CCN(C)CC4)cc3)c2C1)c1ccccc1", "note": "[Compound 1, N-[5-(2-Methoxy-2-phenyl-acetyl)-1,4,5,6-tetrahydro-pyrrolo[3,4-c]pyrazol-3-yl]-4-(4-methyl-piperazin-1yl)-benzamide]", "values": [{"measurement": "Time to reach 1 g", "setting": "[1]", "result": 27.3, "unit": "days"}, {"measurement": "T-C", "setting": "[1]", "result": 11.5, "unit": "days"}]}
{"smiles": "Cc1ccc(NC(=O)c2ccc(CN3CCN(C)CC3)cc2)cc1Nc1nccc(-c2cccnc2)n1", "note": "[Imatinib]", "values": [{"measurement": "Time to reach 1 g", "setting": "[1]", "result": 25.1, "unit": "days"}, {"measurement": "T-C", "setting": "[1]", "result": 9.3, "unit": "days"}]}
{"smiles": "Cc1ccc(NC(=O)c2ccc(CN3CC[C@H](N(C)C)C3)c(C(F)(F)F)c2)cc1Nc1nccc(-c2cncnc2)n1", "note": "[Inno-406]", "values": [{"measurement": "activity against the T315I mutation", "setting": "[2]", "result": "inactive"}]}
